Assay results published in US10111881B2 (priority 2016, dated 2018).

Key:
EBOV = experiment: organism not typed; assay type: cell-based, Zaire Ebolavirus (Mayinga strain); conditions: for IC50: read-out: IC-50 (EBOV)
MARV = experiment: microbe, parasite or virus in culture; assay type: cell-based, Marburgvirus (Musoke strain); conditions: for IC50: read-out: IC-50 (MARV)

C=C1CC(C)OC(c2ccccc2OCC(O)CN2CCCCC2)C1 (centres unmarked) [MLS000042810]
Curve Class (EBOV) (EBOV): 1.7 | Curve class (MARV) (MARV): 1.2 | IC50 (MARV): 25.5 µM

O=C(NC1CCCCC1)c1ccc(S(=O)(=O)N2CCCCC2)cc1 [MLS000063146]
Curve Class (EBOV) (EBOV): 4 | Curve class (MARV) (MARV): 1.2 | IC50 (MARV): 25.4 µM

CCN1CCN(CCCNC(=O)c2cc3cc4ccc(OC)cc4nc3o2)CC1 [MLS000091920]
Curve Class (EBOV) (EBOV): 4 | Curve class (MARV) (MARV): 1.2 | IC50 (MARV): 5.4 µM

O=C1C2CCCN2C(c2cccs2)N1c1ccc(Cl)cc1 (centres unmarked) [MLS000092187]
Curve Class (EBOV) (EBOV): 1.4 | Curve class (MARV) (MARV): 1.2 | IC50 (MARV): 25.2 µM

Cc1cc(OCCCCCNCCO)cc(C)c1Cl [MLS000106706]
Curve Class (EBOV) (EBOV): 1.5 | IC50 (EBOV): 0.595 µM | Curve class (MARV) (MARV): 1.2 | IC50 (MARV): 25.2 µM

CC1(C)CC(NC(=O)N2c3ccccc3Sc3ccccc32)CC(C)(C)N1 [MLS000332573]
Curve Class (EBOV) (EBOV): 1.3 | IC50 (EBOV): 6.02 µM | Curve class (MARV) (MARV): 1.2 | IC50 (MARV): 12.8 µM

Cc1ccc(NC(=O)CN(C)C(=O)Cn2ncc(Cl)c(Cl)c2=O)cc1 [MLS000336293]
Curve Class (EBOV) (EBOV): 4 | IC50 (MARV): 24 µM

O=C(COC(=O)/C=C/c1cccs1)Nc1nc(-c2ccccc2)cs1 [MLS000391391]
Curve Class (EBOV) (EBOV): 1.4 | Curve class (MARV) (MARV): 1.2 | IC50 (MARV): 25.3 µM

CC(C)(C)c1cc(/C=N/O)cc(C(C)(C)C)c1O [MLS000391984]
Curve Class (EBOV) (EBOV): 1.4 | Curve class (MARV) (MARV): 1.2 | IC50 (MARV): 6.12 µM

S=C(Nc1ccc(Cl)cc1)NC1CCN(Cc2ccccc2)CC1 [MLS000418057]
Curve Class (EBOV) (EBOV): 4 | Curve class (MARV) (MARV): 1.2 | IC50 (MARV): 25.6 µM

CCN(CC)CCNC1=NCCn2c1cc1cc(OC)ccc12 [MLS000556387]
Curve Class (EBOV) (EBOV): 1.6 | IC50 (EBOV): 2.93 µM | Curve class (MARV) (MARV): 1.2 | IC50 (MARV): 25.5 µM

Cc1cc(C(=O)c2ccccc2)c(NC(=O)CCl)s1 [MLS000567464]
Curve Class (EBOV) (EBOV): 1.6 | IC50 (EBOV): 25.2 µM | Curve class (MARV) (MARV): 1.2 | IC50 (MARV): ~44.4 µM

Cc1ccc(NC(=O)ON=C2CCCC2)cc1 [MLS000569139]
Curve Class (EBOV) (EBOV): 1.4 | Curve class (MARV) (MARV): 1.2 | IC50 (MARV): 12.7 µM

CCOc1cccc(CNCCO)c1OCc1ccc(Cl)cc1Cl.Cl [MLS000580080]
Curve Class (EBOV) (EBOV): 1.3 | IC50 (EBOV): 24.6 µM | Curve class (MARV) (MARV): 1.2 | IC50 (MARV): 25.1 µM

COc1ccc(C(C(=O)NC2CCCCC2)N(C(=O)CCl)c2ccc(C)cc2)cc1 (centres unmarked) [MLS000583959]
Curve Class (EBOV) (EBOV): 1.3 | IC50 (EBOV): 12.4 µM | Curve class (MARV) (MARV): 1.2 | IC50 (MARV): 12.1 µM

C=CCNCCOCCOc1ccc(Cl)cc1C(C)(C)C [MLS000666802]
Curve Class (EBOV) (EBOV): 1.5 | IC50 (EBOV): 0.616 µM | IC50 (MARV): 25.2 µM

CCCN1CCN(CCCNC(=O)c2cc3c(=O)[nH]c4ccc(C)cc4c3s2)CC1 [MLS000673118]
Curve Class (EBOV) (EBOV): 1.3 | IC50 (EBOV): 25 µM | Curve class (MARV) (MARV): 1.2 | IC50 (MARV): 25.1 µM

CCOC(=O)c1c(C)n(CC(O)CN(C)C)c2cc(Br)c(OC)cc12.Cl (centres unmarked) [MLS000684231]
Curve Class (EBOV) (EBOV): 1.3 | IC50 (EBOV): 6.48 µM | Curve class (MARV) (MARV): 1.2 | IC50 (MARV): 4.88 µM

CCCCN(CCCC)CCNC(=O)CSCc1ccc(C)cc1.O=C(O)C(=O)O [MLS000689481]
Curve Class (EBOV) (EBOV): 1.3 | IC50 (EBOV): 12 µM | Curve class (MARV) (MARV): 1.2 | IC50 (MARV): 12.8 µM

CCOc1cc(CNCCc2c[nH]c3ccccc23)cc(Cl)c1OC.Cl [MLS000718690]
IC50 (EBOV): 2.77 µM | Curve class (MARV) (MARV): 1.2 | IC50 (MARV): 25.3 µM

Oc1ccc(N2CCN(Cc3ccc(OCCCN4CCCCC4)cc3)CC2)cc1 [MLS000736237]
Curve Class (EBOV) (EBOV): 4 | Curve class (MARV) (MARV): 1.2 | IC50 (MARV): 14 µM

Oc1ccc(Nc2ccnc3cc(Cl)ccc23)cc1 [MLS000737975]
Curve Class (EBOV) (EBOV): 4 | IC50 (MARV): 25.2 µM

Cc1cc(C)c2nc(C)cc(Nc3ccc(C(=O)NCCO)cc3)c2c1 [MLS000768081]
Curve Class (EBOV) (EBOV): 4 | Curve class (MARV) (MARV): 1.2 | IC50 (MARV): 13.8 µM

CCN(CC)CCCNc1nc(CN2CCOCC2)nc2sc3c(c12)CCC3 [MLS000772389]
Curve Class (EBOV) (EBOV): 1.6 | IC50 (EBOV): 3.51 µM | Curve class (MARV) (MARV): 1.2 | IC50 (MARV): 24.8 µM

O=C1COc2ccc(C(=O)CCl)cc2N1 [MLS000780111]
Curve Class (EBOV) (EBOV): 4 | IC50 (MARV): ~38.8 µM

Fc1ccc(C(c2nnnn2Cc2cccs2)N2CCN(C3CCCCC3)CC2)cc1 (centres unmarked) [MLS000880330]
Curve Class (EBOV) (EBOV): 1.6 | IC50 (EBOV): 6.38 µM | Curve class (MARV) (MARV): 1.2 | IC50 (MARV): 25.8 µM

COc1ccc(NC(=O)C2C3C=CC4(O3)C2C(=O)N(CCN2CCCCC2)C4C(=O)NC2CCCC(C)C2C)cc1 (centres unmarked) [MLS000936259]
Curve Class (EBOV) (EBOV): 1.3 | IC50 (EBOV): 12.5 µM | Curve class (MARV) (MARV): 1.2 | IC50 (MARV): 25.3 µM

Cc1c(C(=O)NCCN(C)C)oc2ccc(S(=O)(=O)N3CCCC3)cc12 [MLS000936795]
Curve Class (EBOV) (EBOV): 1.4 | Curve class (MARV) (MARV): 1.2 | IC50 (MARV): 25.4 µM

Cc1cc(NC(=O)CCN2CCN(C/C=C/c3ccccc3)CC2)ccc1Br.Cl [MLS000999960]
Curve Class (EBOV) (EBOV): 1.6 | IC50 (EBOV): 3.28 µM | IC50 (MARV): 26.4 µM

CCN1CCCC1CNCC(O)COc1ccc(C(C)(C)C)cc1C.O=C(O)C(=O)O (centres unmarked) [MLS001018888]
Curve Class (EBOV) (EBOV): 1.3 | IC50 (EBOV): 12.2 µM | Curve class (MARV) (MARV): 1.2 | IC50 (MARV): 25.7 µM

Cc1cc(Nc2ccc(Cl)cc2)nc(N2CCOCC2)n1 [MLS001029946]
Curve Class (EBOV) (EBOV): 1.6 | IC50 (EBOV): 1.52 µM | Curve class (MARV) (MARV): 1.2 | IC50 (MARV): ~43.2 µM

COc1ccc2c(c1)c(CCN)c(C)n2Cc1ccccc1.Cl [MLS001030162]
Curve Class (EBOV) (EBOV): 1.3 | IC50 (EBOV): 6.41 µM | IC50 (MARV): 25.3 µM

COc1ccccc1C(=O)O/N=C(\N)c1ccccn1 [MLS001045935]
Curve Class (EBOV) (EBOV): 1.4 | Curve class (MARV) (MARV): 1.2 | IC50 (MARV): 27.9 µM

CN(C)c1cc(NC(=O)CN2CCCC2)c2ccccc2n1.O=C(O)C(=O)O [MLS001047402]
Curve Class (EBOV) (EBOV): 1.2 | IC50 (EBOV): 5.26 µM | Curve class (MARV) (MARV): 1.2 | IC50 (MARV): 25.9 µM

COc1ccc(C(CNC(=O)c2oc3ccc(OC)cc3c2C)N2CCCC2)cc1 (centres unmarked) [MLS001150589]
Curve Class (EBOV) (EBOV): 4 | Curve class (MARV) (MARV): 1.2 | IC50 (MARV): 25.9 µM

COc1ccccc1CCN1CCCC(CN(C)CC(C)(C)CO)C1 (centres unmarked) [MLS001162808]
Curve Class (EBOV) (EBOV): 1.3 | IC50 (EBOV): 7.25 µM | Curve class (MARV) (MARV): 1.2 | IC50 (MARV): 26.1 µM

O=C(CCCN1CCc2[nH]c3ccc(F)cc3c2C1)c1ccc(F)cc1 [MLS001173370]
Curve Class (EBOV) (EBOV): 1.3 | IC50 (EBOV): 3.06 µM | IC50 (MARV): 25.1 µM

O=C(C#Cc1ccccc1)c1ccco1 [MLS001174896]
IC50 (EBOV): 12.4 µM | IC50 (MARV): 12.2 µM

CCN(CC)CCNC(=O)c1ccc(NC(=O)c2ccccc2-c2ccc(C(F)(F)F)cc2)cc1 [MLS001175455]
Curve Class (EBOV) (EBOV): 1.6 | IC50 (EBOV): 6.42 µM | Curve class (MARV) (MARV): 1.2 | IC50 (MARV): 25.4 µM

Cc1cccc(C)c1OCC(O)CNC(C)c1ccccc1.Cl (centres unmarked) [MLS001177927]
Curve Class (EBOV) (EBOV): 1.5 | IC50 (EBOV): 6.42 µM | Curve class (MARV) (MARV): 1.2 | IC50 (MARV): 25.8 µM
